Test results from ChEMBL document CHEMBL3430912, “GSK Tres Cantos Anti-Kinetoplastid Screening (TCAKS) Data”.

How the values were obtained:
Trypanosoma cruzi [1] = assay: GSK_TCAKS: pIC50 Trypanosoma cruzi viability assay using beta-GAL activity. This assay was run at single shot at 5uM compound concentration per well. The biological reagents consisted of NIH-3T3 host cells and trypomastigotes parasitic cells; both cell types were set to a 3.3 * 10^5 cells/mL dilution in assay DMEM by means of a CASY cell counter device using a 60um capillary. 6 uL of the mixture were dispensed per well (about 1 * 10^3 host-cells and 1 * 10^3 parasites) with a Multidrop Combi dispenser. […] In all wells, the percentage of DMSO never exceeded 0.5%. Plates incubated for four days at 37C, 5% CO2. The substrate used for the assay fluorescence intensity (FLINT) readout was resorufin-beta-D-galactopiranoside (Sigma-Aldrich) at 5uM per well. It was diluted in PBS supplemented with the soft detergent Igepal (Fluka).; type: functional, organism-based, Mus musculus; details: Tulahuen, NIH3T3
Trypanosoma cruzi [2] = assay: (§1) GSK_TCAKS: pIC50 Trypanosoma cruzi Imaging: Infected Cells. […] Cells were then washed once with PBS before infection. T. cruzi trypomastigotes, collected at days 5 to 8 after infection from LLC-MK2 parasite infected cultures, were allowed to swim out for 4h at 37C from a centrifuged pellet (2,500 rpm/10 min/room temperature). Trypomastigotes were then collected and counted in a CASY Cell Counter. Trypomastigotes, in supplemented DMEM, were added to H9c2 cultures in a multiplicity of infection of 1 and incubated for 18 h. Cells were washed once with PBS before incubation of the infected H9c2 monolayer with trypsin (Life-Technologies) to detach cells from the flask. Cells were counted in a CASY Cell Counter using a 150 um capillary and their density set at 5 * 10^4 cells per mL in supplemented assay DMEM. Infected H9c2 were dispensed into 384-well poly-lysine coated assay plates at 50uL per well using a Multidrop Combi dispenser. After seeding them, the plates were incubated at 37C, 5% CO2 for 72h. Cultures were then fixed and stained by addition of 50 uL of a solution containing 8% formaldehyde and 4 uM DRAQ5 DNA dye (BioStatus, UK) per well. […] Five images were collected per well for reliable statistical analysis. Automated image analysis was performed with a script developed on Acapella High Content Imaging and Analysis Software (PerkinElmer). Output: percentage of infected cells per well as a second infection marker.; type: functional, organism-based, Rattus norvegicus; details: H9c2, 4 h
Trypanosoma cruzi [3] = assay: GSK_TCAKS: pIC50 Trypanosoma cruzi Imaging: Amastigotes/Cell. […] Cells were then washed once with PBS before infection. T. cruzi trypomastigotes, collected at days 5 to 8 after infection from LLC-MK2 parasite infected cultures, were allowed to swim out for 4h at 37C from a centrifuged pellet (2,500 rpm/10 min/room temperature). Trypomastigotes were then collected and counted in a CASY Cell Counter. Trypomastigotes, in supplemented DMEM, were added to H9c2 cultures in a multiplicity of infection of 1 and incubated for 18 h. Cells were washed once with PBS before incubation of the infected H9c2 monolayer with trypsin (Life-Technologies) to detach cells from the flask. Cells were counted in a CASY Cell Counter using a 150 um capillary and their density set at 5 * 10^4 cells per mL in supplemented assay DMEM. Infected H9c2 were dispensed into 384-well poly-lysine coated assay plates at 50uL per well using a Multidrop Combi dispenser. After seeding them, the plates were incubated at 37C, 5% CO2 for 72h. Cultures were then fixed and stained by addition of 50 uL of a solution containing 8% formaldehyde and 4 uM DRAQ5 DNA dye (BioStatus, UK) per well. […] Five images were collected per well for reliable statistical analysis. Automated image analysis was performed with a script developed on Acapella High Content Imaging and Analysis Software (PerkinElmer). Output: number of amastigotes per cell as infection level measurement.; type: functional, organism-based, Rattus norvegicus; details: H9c2, 4 h
Trypanosoma cruzi [4] = assay: as §1, with “H2C9” for “Trypanosoma cruzi”, “H9c2 Host Cardiomyocytes.” for “Infected Cells.”, “Number” for “percentage”, “H9c2 Host Cardiomyocytes nuclei to determine drug-related cytotoxicity.” for “infected cells per well as a second infection marker.”; type: functional, organism-based, Rattus norvegicus; details: H9c2, 4 h
Leishmania donovani [5] = assay: GSK_TCAKS: pIC50 Leishmania donovani viability assay using fluorescence intensity. Assay plates (1536-well) were prepared by adding 30nL per well of compound. For single shot assay, the final compound concentration was 5uM. […] Briefly, eGFP LdBOB axenic amastigotes were harvested, fixed and counted in a CASY cell counter (Roche-Applied Science). A final concentration of 1.5 * 10^5 cells per well were prepared in amastigote media containing 500 U/mL penicillin/streptomycin (Invitrogen) and 6uL was dispensed to each experimental well using a Multidrop Combi dispenser (Thermo Scientific). 6uL of assay media was dispensed to control columns used as reference for 100% compound response. Following incubation for 72 h at 37C, 5% CO2, 2 uL of resazurin was added to each well at a final concentration of 0.5 mM in phosphate buffered saline (PBS) with IGEPAL (Sigma-Aldrich), 0.05% (v/v).; type: functional, organism-based
Leishmania donovani [6] = assay: GSK_TCAKS: pIC50 Leishmania donovani Imaging: Infected Macrophages. Assay plates (384-well) were prepared by adding 250nL of compound to each well. For single shot assay, the final compound concentration was 5 uM. […] Automated image analysis was performed with a script developed on Acapella High Content Imaging and Analysis Software (PerkinElmer). Output: Percent of infected macrophage cells were reported for each well.; type: functional, organism-based, Homo sapiens; details: THP-1
Leishmania donovani [7] = assay: GSK_TCAKS: pIC50 Leishmania donovani Imaging: Amastigotes/Macrophages. Assay plates (384-well) were prepared by adding 250nL of compound to each well. For single shot assay, the final compound concentration was 5 uM. […] Automated image analysis was performed with a script developed on Acapella High Content Imaging and Analysis Software (PerkinElmer). Output: Average number of amastigotes per macrophage cell were reported for each well.; type: functional, organism-based, Homo sapiens; details: THP-1
Leishmania donovani [8] = assay: GSK_TCAKS: pIC50 Leishmania donovani Imaging: THP-1 Host Macrophages. Assay plates (384-well) were prepared by adding 250nL of compound to each well. For single shot assay, the final compound concentration was 5 uM. […] Automated image analysis was performed with a script developed on Acapella High Content Imaging and Analysis Software (PerkinElmer). Output: THP-1 cell count were reported for each well.; type: functional, organism-based, Homo sapiens
[9] = test system: Trypanosoma brucei brucei; assay: GSK_TCAKS: pIC50 Trypanosoma brucei viability assay using fluorescence intensity. Assay plates (1536-well) were prepared by dispensing 25nL of compound solution per well using an Echo acoustic dispenser (Labcyte).; type: functional, organism-based; details: Lister 427, 2 h
[10] = test system: Trypanosoma brucei brucei; assay: GSK_TCAKS: pIC50 Trypanosoma brucei viability assay using luminiscence. Assay plates (1536-well) were prepared. T. brucei cultures were harvested and counted in a CASY cell counter. A parasite suspension was prepared at a final concentration of 5 * 10^4 cells/mL in complete HMI9 medium and 6uL was dispensed to all wells containing compounds using a Multidrop Combi dispenser. 6uL of HMI9 media with 0.4% DMSO were dispensed to control columns. Plates were incubated for 24 h at 37C, 5% CO2 then tempered for 10 min at room temperature. ATP content was quantified by adding 4 uL of CellTiter-Glo Reagent (Promega) according to the manufacturer's instructions. Luminescence was measured using a ViewLux.; type: functional, organism-based; details: Lister 427, CASY
[11] = GSK_TCAKS: pIC50 HepG2 human cell line viability assay using luminiscence. […] Seeding density was checked to ensure that new mono-layers were not more than 50% confluent at the time of harvesting. Cell suspension was added to 500 mL of the same medium at a final density of 1.2 * 10^5 cells/mL. This cell suspension was dispensed (25 uL, 3000 cells per well) into 384-well clear-bottom plates using a Multidrop Combi dispenser. Prior to addition of the cell suspension, the screening compounds (250 nL) were pre-dispensed into the plates with an Echo liquid handler. Plates were incubated for 48 h at 37C, 5% CO2. After incubation, plates equilibrated at room temperature for 30 min before proceeding to develop the luminescent signal. The signal developer, CellTiter-Glo Reagent, was allowed to equilibrate at room temperature for 30 min and added to the plates (25uL per well) using a Multidrop Combi dispenser. Plates were left for 10 min at room temperature for stabilization and then read using a ViewLux.; type: toxicity, cell-based
NIH3T3 = assay: GSK_TCAKS: pIC50 NIH 3T3 cell line viability assay using luminiscence. Tissue culture surface treated assay plates (1536-well) were used. […] The 100% cells survival control was determined exposing the host-cells to a 0.5% DMSO concentration, whereas the 100% toxicity control was achieved by seeding the cells in presence of Amphotericin B at 50uM. Plates were incubated for four days at 37C, 5% CO2. The assay readout was developed by addition of 5uL of CellTiter-Glo Reagent following the manufacturer's instructions. Luminiscence was measured using a ViewLux.; type: functional, cell-based; details: Mus musculus, NIH3T3, 96 h
[12] = target: Sterol 14-alpha demethylase (Trypanosoma cruzi (strain CL Brener), UniProt Q7Z1V1); assay: GSK_TCAKS: pIC50 CYP51 from Trypanosoma cruzi.; type: functional
Sterol 14-alpha demethylase, sequence (Q7Z1V1 whole entry): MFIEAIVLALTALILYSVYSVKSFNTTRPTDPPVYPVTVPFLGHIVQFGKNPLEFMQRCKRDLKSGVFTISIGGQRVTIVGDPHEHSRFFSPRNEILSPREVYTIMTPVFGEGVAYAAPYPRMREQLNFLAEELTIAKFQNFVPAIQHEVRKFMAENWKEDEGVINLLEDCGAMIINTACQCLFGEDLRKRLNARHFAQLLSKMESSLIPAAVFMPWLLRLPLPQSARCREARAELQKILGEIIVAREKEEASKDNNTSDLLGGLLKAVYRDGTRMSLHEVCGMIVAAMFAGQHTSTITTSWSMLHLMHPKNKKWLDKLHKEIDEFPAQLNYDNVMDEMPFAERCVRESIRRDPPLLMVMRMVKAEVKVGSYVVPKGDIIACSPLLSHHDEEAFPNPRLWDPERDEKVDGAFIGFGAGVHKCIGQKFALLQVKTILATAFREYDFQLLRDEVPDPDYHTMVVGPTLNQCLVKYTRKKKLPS

Compound | IC50 (Trypanosoma cruzi [1]) | IC50 (Trypanosoma cruzi [2]) | IC50 (Trypanosoma cruzi [3]) | IC50 (Trypanosoma cruzi [4]) | IC50 (Leishmania donovani [5]) | IC50 (Leishmania donovani [6]) | IC50 (Leishmania donovani [7]) | IC50 (Leishmania donovani [8]) | IC50 [9] | IC50 [10] | IC50 at 48 h [11] | IC50 (NIH3T3) | IC50 [12]
O=c1cc(NCCCNC2CCOc3c(I)cc(Cl)cc32)[nH]c2ccccc12 (stereo unspecified) | 0.794 µM | 0.316 µM | 0.158 µM | 25.1 µM | 31.6 µM | 20 µM | 12.6 µM | 20 µM | 0.01 µM | 0.02 µM | 63.1 µM | 25.1 µM | 15.8 µM
Cc1sc(C)c(C(F)(F)F)c1CNCCCNc1cc(=O)c2ccccc2[nH]1 | 0.794 µM | 1 µM | 0.501 µM | > 50.1 µM | > 50.1 µM | 50.1 µM | 25.1 µM | 31.6 µM | 0.01 µM | 0.0126 µM | 50.1 µM | 10 µM | 20 µM
CC(C)N(C(=O)CN1C(=O)C(N)C(=O)N(c2ccccc2)c2ccccc21)c1ccccc1 (stereo unspecified) | 0.316 µM | 0.316 µM | 0.398 µM | > 50.1 µM | > 50.1 µM | > 50.1 µM | > 50.1 µM | > 50.1 µM | > 39.8 µM | > 39.8 µM | > 100 µM | 20 µM | 0.316 µM
O=C1CCCCCC1(Cc1cnc[nH]1)c1ccc(Cl)cc1Cl (stereo unspecified) | 0.251 µM | 0.251 µM | 0.316 µM | > 50.1 µM | > 50.1 µM | > 50.1 µM | 6.31 µM | > 50.1 µM | > 39.8 µM | > 39.8 µM | 79.4 µM | 20 µM | 0.1 µM
CCN(C)Cc1ccc(N2CCC(NS(=O)(=O)c3ccc4c(c3)CCO4)CC2)nc1 | 0.631 µM | 1.26 µM | 1 µM | > 50.1 µM | > 50.1 µM | > 50.1 µM | – | > 50.1 µM | > 39.8 µM | 39.8 µM | > 100 µM | 12.6 µM | > 100 µM
Cn1c(CN2CCN(c3ncc(C(F)(F)F)cc3Cl)CC2)nc2ccncc21 | 0.794 µM | 1 µM | 1 µM | > 50.1 µM | 5.01 µM | > 50.1 µM | – | 6.31 µM | 6.31 µM | > 39.8 µM | > 100 µM | 10 µM | 0.0794 µM
Fc1ccccc1N1C[C@H]2CCN(c3cccnc3)C[C@H]2C1 | 0.2 µM | 0.2 µM | 0.2 µM | > 50.1 µM | 12.6 µM | > 50.1 µM | – | > 50.1 µM | 31.6 µM | > 39.8 µM | > 100 µM | 12.6 µM | 0.0631 µM
Cn1cncc1CN1CCC2(CC1)COC(Cc1ccccc1)C2 (stereo unspecified) | 0.316 µM | 0.501 µM | 0.316 µM | > 50.1 µM | 12.6 µM | > 50.1 µM | – | > 50.1 µM | > 39.8 µM | > 39.8 µM | > 100 µM | 25.1 µM | 1 µM
CC1(C)CCC(=Cc2ccc(Cl)cc2)CC1(O)Cn1ccnc1 (stereo unspecified) | 0.00631 µM | 0.00794 µM | 0.00501 µM | 31.6 µM | 2.51 µM | 7.94 µM | 2 µM | 12.6 µM | 10 µM | 25.1 µM | 50.1 µM | 15.8 µM | 0.0501 µM
O=C(NCC1CCCCC1)c1cc(=O)c2ccccc2o1 | 0.447 µM | 0.631 µM | 0.501 µM | 31.6 µM | 5.01 µM | 15.8 µM | 6.31 µM | > 50.1 µM | 1 µM | 1.26 µM | 25.1 µM | 31.6 µM | > 100 µM
